In general, Ki refers to the dissociation constant of the complex between target and ligand, obtained from inhibition or displacement. A high value points to weaker binding.

Drawing on paper PMC6479789, “High Consistency of Structure-Based Design and X-Ray Crystallography: Design, Synthesis, Kinetic Evaluation and Crystallographic Binding Mode Determination of Biphenyl-N-acyl-β-D-Glucopyranosylamines as Glycogen Phosphorylase Inhibitors” (Molecules, 2019), this text covers Ki for two compounds.

Common to all, as to format: biochemical
One experiment deals with T1, rmGPb (Oryctolagus cuniculus, UniProt P00489).
T1 construct: gene PYGM; native, purified from rabbit skeletal muscles (Fischer and Krebs), unphosphorylated b form
T1 sequence (P00489 2-843): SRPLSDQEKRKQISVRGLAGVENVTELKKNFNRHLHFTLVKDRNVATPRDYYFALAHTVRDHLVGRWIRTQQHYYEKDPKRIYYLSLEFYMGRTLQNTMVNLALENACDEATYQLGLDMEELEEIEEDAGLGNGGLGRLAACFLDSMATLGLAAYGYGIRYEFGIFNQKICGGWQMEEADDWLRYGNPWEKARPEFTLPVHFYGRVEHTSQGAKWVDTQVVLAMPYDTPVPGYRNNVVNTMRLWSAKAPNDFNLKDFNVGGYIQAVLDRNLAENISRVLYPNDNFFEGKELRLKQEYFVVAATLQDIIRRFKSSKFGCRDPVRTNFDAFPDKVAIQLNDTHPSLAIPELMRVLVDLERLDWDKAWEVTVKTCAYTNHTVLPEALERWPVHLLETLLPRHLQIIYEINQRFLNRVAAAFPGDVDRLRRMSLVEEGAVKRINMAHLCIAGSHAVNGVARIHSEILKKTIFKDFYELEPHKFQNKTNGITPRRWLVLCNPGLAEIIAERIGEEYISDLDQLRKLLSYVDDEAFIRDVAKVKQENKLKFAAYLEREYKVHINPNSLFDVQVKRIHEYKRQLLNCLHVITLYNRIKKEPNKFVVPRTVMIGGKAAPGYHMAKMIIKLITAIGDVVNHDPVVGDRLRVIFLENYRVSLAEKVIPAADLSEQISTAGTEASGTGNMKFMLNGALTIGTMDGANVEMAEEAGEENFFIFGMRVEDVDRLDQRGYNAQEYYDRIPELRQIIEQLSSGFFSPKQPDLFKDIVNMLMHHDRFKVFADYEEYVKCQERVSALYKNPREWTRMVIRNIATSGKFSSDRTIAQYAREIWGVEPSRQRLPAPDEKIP
In words: inorganic phosphate release, glycogen synthesis direction; crystal structure of the complex also solved. From the text: inorganic phosphate release, glycogen synthesis direction; crystal structure of the complex also solved on rmGPb

The target in the next experiment is T2, hlGPa (Homo sapiens, UniProt P06737).
T2 construct: gene PYGL; recombinant human liver GPb (produced as described previously) converted to the phosphorylated a form with truncated gamma subunit of rabbit phosphorylase kinase
T2 sequence (P06737 2-847): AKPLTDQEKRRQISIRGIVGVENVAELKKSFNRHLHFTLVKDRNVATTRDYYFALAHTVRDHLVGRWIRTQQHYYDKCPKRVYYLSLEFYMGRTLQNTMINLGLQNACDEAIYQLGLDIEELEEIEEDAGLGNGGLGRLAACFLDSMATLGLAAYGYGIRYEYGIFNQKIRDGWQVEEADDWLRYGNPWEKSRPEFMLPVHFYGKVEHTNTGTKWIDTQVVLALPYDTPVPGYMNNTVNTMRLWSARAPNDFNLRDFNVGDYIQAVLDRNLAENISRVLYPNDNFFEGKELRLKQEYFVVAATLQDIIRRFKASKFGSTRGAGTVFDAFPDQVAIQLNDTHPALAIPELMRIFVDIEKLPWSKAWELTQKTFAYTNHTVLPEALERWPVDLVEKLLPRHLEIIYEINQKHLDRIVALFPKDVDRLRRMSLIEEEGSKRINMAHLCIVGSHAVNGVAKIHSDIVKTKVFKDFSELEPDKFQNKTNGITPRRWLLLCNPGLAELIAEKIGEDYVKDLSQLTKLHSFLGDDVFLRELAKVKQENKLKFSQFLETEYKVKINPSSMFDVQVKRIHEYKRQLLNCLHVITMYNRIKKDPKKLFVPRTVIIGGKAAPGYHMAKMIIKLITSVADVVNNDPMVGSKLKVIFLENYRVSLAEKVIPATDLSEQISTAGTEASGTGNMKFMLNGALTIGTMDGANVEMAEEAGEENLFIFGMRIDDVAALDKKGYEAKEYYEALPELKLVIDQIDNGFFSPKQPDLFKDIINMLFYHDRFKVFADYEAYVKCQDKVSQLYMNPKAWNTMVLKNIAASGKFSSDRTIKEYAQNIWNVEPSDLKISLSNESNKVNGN
Put plainly: inorganic phosphate release, glycogen synthesis direction. The source says: inorganic phosphate release, glycogen synthesis direction on hlGPa

Another experiment has as its target T3, rmGPa (Oryctolagus cuniculus, UniProt P00489).
T3 construct: gene PYGM; native rabbit skeletal muscle GPb converted to the phosphorylated a form with truncated gamma subunit of rabbit phosphorylase kinase
T3 sequence (P00489 2-843): T1 sequence (P00489 2-843)
The description is as above. The source says:
inorganic phosphate release, glycogen synthesis direction on rmGPa

`O=C(N[C@@H]1O[C@H](CO)[C@@H](O)[C@H](O)[C@H]1O)c1cccc(-c2ccc(F)cc2)c1` [compound 3, 4’-fluoro-N-(3,4,5-trihydroxy-6-(hydroxymethyl)tetrahydro-2H-pyran-2-yl)biphenyl-3-carboxamide]: the Ki on rmGPb turned out to be 56.1 ± 4.4 µM; at hlGPa it was 45.6 ± 1.8 µM; on rmGPa, 31.4 ± 2.2 µM.

Regarding `O=C(N[C@@H]1O[C@H](CO)[C@@H](O)[C@H](O)[C@H]1O)c1ccc(-c2ccccc2)cc1` [compound 4, N-(3,4,5-trihydroxy-6-(hydroxymethyl)tetrahydro-2H-pyran-2-yl)biphenyl-4-carboxamide], the Ki on rmGPb was found to be 9.7 ± 0.7 µM; at hlGPa, 19.4 ± 0.2 µM; on rmGPa, 12.8 ± 0.6 µM.
